ChEMBL document CHEMBL1154790, “Lorneic acids, trialkyl-substituted aromatic acids from a marine-derived actinomycete” (J Nat Prod, 2009)
The source made the active and inactive calls. No cut-off for these calls is given here.

Assays:
[1] = target: T1, cGMP-specific 3',5'-cyclic phosphodiesterase (Homo sapiens, UniProt O76074); assay: Inhibition of human platelet PDE5 assessed as [3H]cGMP to [3H]GMP conversion pretreated 15 mins before substrate addition measured after 20 mins
[2] = target: T1, cGMP-specific 3',5'-cyclic phosphodiesterase; assay: Inhibition of human platelet PDE5 assessed as [3H]cGMP to [3H]GMP conversion at 10 uM pretreated 15 mins before substrate addition measured after 20 mins

Row | IC50 [1] [µM] | inhibition [2] | SMILES
1 | 12.6 | Active | CCCC/C=C/c1cc(C)ccc1/C=C/CC(=O)O [LORNEIC ACID A]
2 | 87.1 | – | CCCCCC(O)c1cc(C)ccc1/C=C/CC(=O)O (stereo not drawn) [LORNEIC ACID B]
